Data reported in paper PMC7154053, “Chemical, Metabolic, and Cellular Characterization of a FtsZ Inhibitor Effective Against Burkholderia cenocepacia” (Frontiers in Microbiology, 2020).

How the values were obtained:
PAO1-FtsZ = target: T1, PAO1-FtsZ (Pseudomonas aeruginosa, UniProt P47204); assay: FtsZ GTPase activity assay (kinetics and inhibition); format: biochemical; conditions: read-out: IC50 toward PAO1-FtsZ
T1 construct: His-tag of pET-28a followed by PreScission site (His-tag inferred from the vector; the site is encoded in the forward primer) (N); made in house; host or cells: E. coli BL21(DE3)
Protocol: The gene ftsZ (BCAL3457) was amplified from B. cenocepacia FCF19 using the primers pet28presFtsZfor (5′-[…]-3′) and pet28ftsZrev (5′-[…]-3′). The gene ftsZ of P. aeruginosa was amplified from the genomic DNA using the primers ftsZPAOfor28a (5′-[…] 3′) and ftsZPAOrev28a (5′-[…]-3′). The PCR products were cloned into the pET-28a vector (Novagen) using the In-Fusion HD Cloning kit (TaKaRa), according to the manufacturer's instructions.
All the recombinant FtsZ proteins were expressed at 20°C overnight in E. coli BL21(DE3) cells, upon induction with 0.5 mM IPTG, and purified using the same protocol assessed for the wild-type B. cenocepacia FtsZ (Hogan et al., [2018]).
GTPase enzyme activity was determined using a pyruvate kinase/L-lactic dehydrogenase (PK/LDH) spectrophotometric coupled assay (Ingerman and Nunnari, [2005]). The assays were performed at 30°C, in a reaction mixture containing […] Hepes pH 7.5, 5 mM MgCl2, 5 mM KCl, 10 U PK/LDH, 0.25 mM NADH, 0.25 mM PEP, and 5–10 μM FtsZ, and initiated by the addition of 0.5 mM GTP. Alternatively, GTPase activity was determined by measuring the release of phosphate using the malachite green assay (Baykov et al., [1988]).
Steady-state kinetic analysis was performed by assaying the activity at different GTP concentrations and parameters determined by fitting the data to the Michaelis-Menten equation using Origin 8 software. […]

B. cenocepacia J2315 = assay: Time-lapse microscopy, single-cell analysis in microfluidic device; format: cell-based, Burkholderia cenocepacia
Protocol: B. cenocepacia J2315 was cultured over-night in Middlebrook 7H9 broth, supplemented with 10% (v/v) DS enrichment (20 g dextrose, 8.5 g sodium chloride in 1 L water) and 5% (v/v) of a casamino acids solution (10 g casamino acids in 100 ml water). Cells were diluted 10-fold in the same fresh 7H9 medium, and 5 μl of the diluted cell suspension were inoculated into a custom-made microfluidic hexa-device, as previously described (Manina et al., [2019]). Silicone tubing (0.76 mm ID) was connected to each inlet and outlet ports of the hexa-device to enable medium circulation. Two 50 ml syringes were connected to the inlet tubing, and prewarmed 7H9 medium was pumped through the microfluidic device at 15 μl/min. The outlet tubing were inserted into a waste receptacle containing bleach. […] Bacteria were imaged in phase contrast, using a UPLFLN100XO2/PH3/1.30 objective (Olympus) and a high-speed sCMOS camera, with the help of an automated epifluorescence inverted microscope (DeltaVision Elite, GE Healthcare). The microscope was equipped with an environmental chamber maintained at 37°C. Images were recorded at 20-min intervals and up to 46 h. Exposure conditions were as follows: phase 50% T, 150 ms. In each experiment, 190 XY fields were imaged. The same experimental set-up was carried out twice.
Manual segmentation of individual cells and analysis of image stacks were performed using the ImageJ 1.52a software. The Selection Brush Tools was used to draw polygons corresponding to the shape of individual cells and to extract the cell planar area (μm^2). Measurements of the cell area were repeated throughout the generation time of individual cells, to calculate the growth rate by fitting an exponential curve.
Biphasic killing represents the typical pattern of drug persistence, whereby the initial linear mortality of the population is followed by a second phase where a subpopulation of cells is able to endure inhibitory drug concentrations in the absence of genetic mutations (Van den Bergh et al., [2017]). In contrast to drug-resistant cells, which continue to replicate in the presence of the drug, drug-persistent cells either derive from pre-existing non-growing cells or slow down their growth during drug exposure, and their progeny is killed with kinetics similar to that of the initial population (Van den Bergh et al., [2017]; Balaban et al., [2019]). […] To examine the C109 killing dynamics of B. cenocepacia at the single-cell level, we carried out a time-lapse microscopy experiment, divided into several steps. Wild type B. cenocepacia J2315 cells were first seeded into a microfluidic device (Manina et al., [2019]), and perfused with prewarmed 7H9 medium for 3 h, to allow the cells to adapt to the microfluidic environment. […] Cells were then perfused with C109-free 7H9 medium for 12 h, enabling the recovery and expansion of surviving cells. […] During the time-lapse imaging, cells were monitored every 20 min for a total of 46 h. The total number of cells, the single-cell area, and the number of division and lysis events were measured during each step of the experiment.

T1 sequence (P47204 2-316): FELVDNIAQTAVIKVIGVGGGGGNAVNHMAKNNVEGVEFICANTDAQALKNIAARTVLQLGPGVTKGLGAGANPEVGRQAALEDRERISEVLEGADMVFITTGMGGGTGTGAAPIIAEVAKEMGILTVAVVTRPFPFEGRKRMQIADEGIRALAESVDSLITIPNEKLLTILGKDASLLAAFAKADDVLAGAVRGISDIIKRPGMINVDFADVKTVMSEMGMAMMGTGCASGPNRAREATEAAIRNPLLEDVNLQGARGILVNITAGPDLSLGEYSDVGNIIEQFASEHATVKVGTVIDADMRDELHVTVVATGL

COC(=O)CSc1ccc2nsnc2c1[N+](=O)[O-] [C109, methyl [(4-nitro-2,1,3-benzothiadiazol-5-yl)thio]acetate]
IC50 (PAO1-FtsZ): 3.5 ± 1.9 µM
elongated cells that resumed normal growth during washout (possible persistent cells) (B. cenocepacia J2315; 8 of 3,000 elongated cells formed during first exposure): 0.27%
cells died from lysis, first treatment (B. cenocepacia J2315; C109 100 μg/ml (12.5X-MIC), 4 h): 70%
cells still able to grow with considerable filamentation, first treatment (B. cenocepacia J2315; C109 12.5X-MIC, 4 h): 3.5%
cells that stopped to divide (sensitive), second treatment (B. cenocepacia J2315; C109 12.5X-MIC, 24 h): 94%
decline in cell population, second treatment (B. cenocepacia J2315; C109 12.5X-MIC, 24 h): 92%
cells with elongated phenotype, second treatment (B. cenocepacia J2315; C109 12.5X-MIC, 24 h, of the total cell number): ~6%
filamentous cells that started again to divide during washout (B. cenocepacia J2315; C109 washout with fresh medium): 30%
increase of cell area, cells dying by lysis (B. cenocepacia J2315; first treatment): 2 fold
increase of cell area, filamentous cells (B. cenocepacia J2315; first treatment): up to 5 fold
increase of cell area, elongated cells (B. cenocepacia J2315; second treatment, 8–10 μm^2): up to 10 fold
